In ChEMBL document CHEMBL4138293, “Modified Abietane Diterpenoids from Whole Plants of Selaginella moellendorffii” (J Nat Prod, 2018):
Activity calls are given as the source filed them. The calls are words filed in the database; no cut-off is given here.

Experiments:
Format in all cases: functional, cell-based
SW480 = test: Growth inhibition of human SW480 cells after 48 hrs by MTS assay
SMMC-7721 = test: Growth inhibition of human SMMC7721 cells after 48 hrs by MTS assay
HL-60 = test: Growth inhibition of human HL60 cells after 48 hrs by MTS assay
MCF7 = test: Growth inhibition of human MCF7 cells after 48 hrs by MTS assay
A549 = test: Growth inhibition of human A549 cells after 48 hrs by MTS assay

Compound	IC50 (SW480; SW480, 48 h) [nM]	IC50 (SMMC-7721; SMMC-7721, 48 h) [nM]	IC50 (HL-60; HL-60, 48 h) [nM]	growth inhibition (GI) (MCF7)	growth inhibition (GI) (SW480)	growth inhibition (GI) (A549)	growth inhibition (GI) (SMMC-7721)	growth inhibition (GI) (HL-60)	IC50 (MCF7; MCF7, 48 h) [nM]
CC(=O)O[C@H]1C(=O)[C@@]2(C)[C@H]([C@H](OC(=O)c3ccccc3)[C@]3(O)C[C@H](OC(=O)[C@H](O)[C@@H](NC(=O)c4ccccc4)c4ccccc4)C(C)=C1C3(C)C)[C@]1(OC(C)=O)CO[C@@H]1C[C@@H]2O [PACLITAXEL]	< 8	< 8	< 8	–	–	–	–	–	–
CC(C)c1cc2c(cc1O)[C@@]1(C)CC[C@](C)(O)[C@@](O)(CO)[C@@H]1CC2=O	–	–	–	inactive	inactive	inactive	inactive	inactive	–
C=C1[C@@H]2CC(=O)c3cc(C(C)C)c(O)cc3[C@@]2(C)CC(=O)[C@]12CCC1=C(C2)[C@@H]2CC(=O)c3cc(C(C)C)c(O)cc3[C@@]2(C)C[C@@H]1O	–	–	–	–	inactive	inactive	inactive	inactive	9000
C=C1[C@@H]2CC(=O)c3cc(C(C)C)c(O)cc3[C@@]2(C)CC(=O)[C@]12CCC1=C(C2)C2=CC(=O)c3cc(C(C)C)c(O)cc3[C@@]2(C)C[C@@H]1O	–	–	–	inactive	inactive	inactive	inactive	inactive	–
